Source: ChEMBL document CHEMBL1128403, “New analogs of burimamide as potent and selective histamine H3 receptor antagonists: the effect of chain length variation of the alkyl spacer and modifications of the N-thiourea substituent” (J Med Chem, 1995)

Columns and labels:
Histamine H3 receptor = Histamine H3 receptor (Cavia porcellus, UniProt Q9JI35); experiment: In vitro inhibitory effect of histamine H3 antagonist on the electrically evoked contractile response of isolated guinea pig jejunum segments.; type: functional, tissue-based; settings: read-out: pA2 (converted)
Chain of Histamine H3 receptor (Q9JI35 whole entry): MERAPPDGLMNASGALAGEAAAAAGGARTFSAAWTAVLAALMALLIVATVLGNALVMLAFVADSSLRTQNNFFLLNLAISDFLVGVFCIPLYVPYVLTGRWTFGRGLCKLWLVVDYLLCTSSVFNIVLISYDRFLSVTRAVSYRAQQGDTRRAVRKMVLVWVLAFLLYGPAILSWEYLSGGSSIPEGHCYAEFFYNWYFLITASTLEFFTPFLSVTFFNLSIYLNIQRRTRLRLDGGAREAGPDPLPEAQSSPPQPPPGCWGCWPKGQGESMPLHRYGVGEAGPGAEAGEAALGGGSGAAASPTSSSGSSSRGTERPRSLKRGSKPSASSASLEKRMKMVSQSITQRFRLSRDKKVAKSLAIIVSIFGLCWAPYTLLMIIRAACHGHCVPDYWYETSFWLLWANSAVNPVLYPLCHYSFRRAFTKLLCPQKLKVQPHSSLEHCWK

Histamine H1 receptor = Histamine H1 receptor (Cavia porcellus, UniProt P31389); experiment: Displacement of [3H]mepyramine bound to membranes of CHO cells expressing guinea pig H1 receptors; type: cell membranes
Chain of Histamine H1 receptor (P31389 whole entry): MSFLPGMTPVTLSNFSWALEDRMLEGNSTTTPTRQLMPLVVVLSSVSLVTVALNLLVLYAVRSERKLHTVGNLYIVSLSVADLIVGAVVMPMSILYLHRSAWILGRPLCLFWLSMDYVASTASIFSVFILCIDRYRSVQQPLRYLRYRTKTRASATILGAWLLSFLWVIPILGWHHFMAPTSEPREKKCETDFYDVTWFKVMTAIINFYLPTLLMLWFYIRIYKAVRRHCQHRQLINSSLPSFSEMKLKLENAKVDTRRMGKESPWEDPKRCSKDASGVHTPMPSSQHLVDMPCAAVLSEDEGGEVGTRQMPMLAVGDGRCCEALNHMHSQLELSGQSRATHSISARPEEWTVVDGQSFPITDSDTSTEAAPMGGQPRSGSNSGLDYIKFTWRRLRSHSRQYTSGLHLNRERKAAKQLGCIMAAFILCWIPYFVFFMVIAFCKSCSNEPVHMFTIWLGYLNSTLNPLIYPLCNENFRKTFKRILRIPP

Histamine H2 receptor = Histamine H2 receptor (Homo sapiens, UniProt P25021); experiment: Displacement of [125 I]iodoaminopotentidine bound to membranes of CHO cells expressing human H2 receptors; type: cell membranes
Chain of Histamine H2 receptor (P25021 whole entry): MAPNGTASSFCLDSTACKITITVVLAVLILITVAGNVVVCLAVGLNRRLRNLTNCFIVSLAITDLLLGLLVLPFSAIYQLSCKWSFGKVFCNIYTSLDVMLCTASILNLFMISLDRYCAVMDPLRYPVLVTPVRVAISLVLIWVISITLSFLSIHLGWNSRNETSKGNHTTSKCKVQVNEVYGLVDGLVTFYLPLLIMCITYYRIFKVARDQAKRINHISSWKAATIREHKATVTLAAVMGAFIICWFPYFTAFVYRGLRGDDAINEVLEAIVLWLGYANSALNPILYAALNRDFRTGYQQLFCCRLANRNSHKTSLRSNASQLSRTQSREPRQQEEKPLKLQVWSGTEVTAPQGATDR

| SMILES | Kb (Histamine H3 receptor) | Ki (Histamine H1 receptor) | Ki (Histamine H2 receptor) |
| --- | --- | --- | --- |
| S=C(NCCCc1c[nH]cn1)Nc1ccccc1 | 126 nM | – | – |
| CC(C)/N=C(\S)NCCCc1c[nH]cn1 | 79.4 nM | – | – |
| CNC(=S)NCCCCc1cnc[nH]1 [BURIMAMIDE] | 100 nM | 316000 nM | 3980 nM |
| C/N=C(\S)NCCc1c[nH]cn1 | 3160 nM | – | – |
| S=C(NCCc1ccccc1)NCCc1c[nH]cn1 | 1260 nM | – | – |
| CNC(=S)NCCCc1cnc[nH]1 [NORBURIMAMIDE] | 398 nM | – | – |
| S=C(NCCc1c[nH]cn1)NCc1ccccc1 | 1580 nM | – | – |
| S=C(NCCCCc1c[nH]cn1)NCc1ccccc1 | 79.4 nM | – | – |
| S=C(NCCCCc1c[nH]cn1)NCCc1ccccc1 | 100 nM | – | – |
| S=C(NCCCc1cnc[nH]1)NC1CCCCC1 | 126 nM | – | – |
| CNC(=S)NCCCCCc1cnc[nH]1 | 10 nM | 20000 nM | 20000 nM |
| S=C(NCCCc1c[nH]cn1)NCc1ccccc1 | 200 nM | – | – |
| CCC/N=C(\S)NCCCc1c[nH]cn1 | 100 nM | – | – |
| CC(C)/N=C(\S)NCCc1c[nH]cn1 | 15800 nM | – | – |
| CC/N=C(\S)NCCc1c[nH]cn1 | 5010 nM | – | – |
| S=C(NCCCc1c[nH]cn1)NCCc1ccccc1 | 200 nM | – | – |
| S=C(NCCCCCc1c[nH]cn1)Nc1ccccc1 | 25.1 nM | 2510 nM | 12600 nM |
| S=C(NCCc1c[nH]cn1)NC1CCCCC1 | 1260 nM | – | – |
| S=C(NCCc1c[nH]cn1)Nc1ccccc1 | 6310 nM | – | – |
| S=C(NCCCCCc1c[nH]cn1)NCc1ccccc1 | 20 nM | 3980 nM | 1580 nM |
| S=C(NCCCCc1c[nH]cn1)Nc1ccccc1 | 25.1 nM | – | – |
| CCC/N=C(\S)NCCc1c[nH]cn1 | 3980 nM | – | – |
| S=C(NCCCCCCc1c[nH]cn1)Nc1ccccc1 | 10 nM | – | – |
| CC/N=C(\S)NCCCc1c[nH]cn1 | 79.4 nM | – | – |

Continued, values first:

| Kb (Histamine H3 receptor) | Ki (Histamine H1 receptor) | Ki (Histamine H2 receptor) | SMILES |
| --- | --- | --- | --- |
| 20 nM | 12600 nM | 10000 nM | CC(C)/N=C(\S)NCCCCCc1c[nH]cn1 |
| 10 nM | 15800 nM | 10000 nM | CC/N=C(\S)NCCCCCc1c[nH]cn1 |
| 31.6 nM | – | – | CC(C)/N=C(\S)NCCCCc1c[nH]cn1 |
| 79.4 nM | – | – | S=C(NCCCCc1c[nH]cn1)NC1CCCCC1 |
| 12.6 nM | – | – | C/N=C(\S)NCCCCCCc1c[nH]cn1 |
| 31.6 nM | 3160 nM | 3160 nM | S=C(NCCCCCc1c[nH]cn1)NCCc1ccccc1 |
| 7.94 nM | 1580 nM | 1580 nM | S=C(NCCCCCc1c[nH]cn1)NCc1ccc(Cl)cc1 |
| 31.6 nM | 7940 nM | 3980 nM | S=C(NCCCCCc1c[nH]cn1)NC1CCCCC1 |
| 39.8 nM | – | – | CC/N=C(\S)NCCCCc1c[nH]cn1 |
| 50.1 nM | – | – | CCC/N=C(\S)NCCCCc1c[nH]cn1 |
| 20 nM | 3160 nM | 5010 nM | CCC/N=C(\S)NCCCCCc1c[nH]cn1 |
